Reference: patent US20240409585A1, “MACROCYCLIC IMMUNOMODULATORS” (priority 2021, published 2024)
Bridge positions count the residues as written; N and C are the ends. Square brackets hold non-standard residues; d marks the D form. Peptide text beside a SMILES is read from it. * marks the point of attachment. ξ: configuration not given here. Ala(indol-4-yl) = N[C@@H](Cc1cccc2[nH]ccc12)C(=O)O; Phe(4-COOH) = N[C@@H](Cc1ccc(C(=O)O)cc1)C(=O)O; Trp(6-F) = N[C@@H](Cc1c[nH]c2cc(F)ccc12)C(=O)O; Bip = N[C@@H](Cc1ccc(-c2ccccc2)cc1)C(=O)O; Phe(2-Cl) = N[C@@H](Cc1ccccc1Cl)C(=O)O; Cha = N[C@@H](CC1CCCCC1)C(=O)O; Ile(3ξ) = CCC(C)[C@H](N)C(=O)O; Thr(3ξ) = CC(O)[C@H](N)C(=O)O; Dap(Me) = CNC[C@H](N)C(=O)O; Carboxymethyl = O=C(O)C*; NMeA = CN[C@@H](C)C(=O)O; Dab = NCC[C@H](N)C(=O)O

What follows are compounds tested against T1, PE-labeled human PD-L1-Ig binding to Jurkat cell line over-expressing human PD-1 (Jurkat-PD-1) (Homo sapiens, UniProt Q15116) (assay: Jurkat-PD-1 Cell Binding High-Content Screening Assay (CBA): Method 1). Conditions: Jurkat-hPD-1 cells, PE-labeled PD-L1-Ig 20 nM final; read-out: Jurkat HPDL1 PD1 IC50 (uM) (Method 1).
T1 construct: expressed in transfected cells; host or cells: Jurkat
T1 sequence (Q15116 25-288): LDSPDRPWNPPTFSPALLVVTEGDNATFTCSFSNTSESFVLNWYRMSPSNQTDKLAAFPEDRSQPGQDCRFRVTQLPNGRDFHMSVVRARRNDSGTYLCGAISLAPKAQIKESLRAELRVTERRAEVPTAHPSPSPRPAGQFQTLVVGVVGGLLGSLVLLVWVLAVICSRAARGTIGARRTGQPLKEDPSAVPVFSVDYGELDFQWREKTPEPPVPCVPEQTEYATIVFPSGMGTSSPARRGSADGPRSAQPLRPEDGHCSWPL
Work on `CCC(C)[C@@H]1NC(=O)[C@H](Cc2ccc(-c3ccccc3)cc2)NC(=O)[C@H](CC2CCCCC2)NC(=O)[C@H](Cc2c[nH]c3ccccc23)NC(=O)[C@H](CC(=O)O)NC(=O)[C@H](Cc2ccc(OCC(=O)O)cc2)NC(=O)[C@H](C(C)O)NC(=O)CSC[C@@H](C(=O)N[C@@H](CC(N)=O)C(=O)O)NC(=O)[C@H](CO)NC(=O)[C@H](C(C)C)NC(=O)[C@H](CC(C)C)NC(=O)[C@H](CCN)NC(=O)[C@@H](CC(C)C)NC(=O)[C@H](C)N(C)C1=O` (stereo partly drawn) [Compound 2223] ({CH2CO}-[Thr(3ξ)]Y(Carboxymethyl)DW[Cha][Bip][Ile(3ξ)][NMeA][dL][Dab]LVSCN-OH; thioether N-14) yielded an IC50 of 0.04 µM. In the case of `CC(C)C[C@@H]1NC(=O)[C@H](CCCNC(=N)N)NC(=O)[C@@H](CC(C)C)NC(=O)[C@H](C)N(C)C(=O)[C@H](CCCNC(=N)N)NC(=O)[C@H](Cc2ccc(-c3ccccc3)cc2)NC(=O)[C@H](C(C)C)NC(=O)[C@H](Cc2ccccc2Cl)NC(=O)[C@H](CC(=O)O)NC(=O)[C@H](Cc2ccc(O)cc2)NC(=O)[C@H](CC(N)=O)NC(=O)CSC[C@@H](C(=O)N[C@@H](C)C(N)=O)NC(=O)[C@H]([C@@H](C)O)NC(=O)[C@H](C(C)C)NC1=O` [Compound 1193] ({CH2CO}-NYD[Phe(2-Cl)]V[Bip]R[NMeA][dL]RLVTCA-NH2; thioether N-14), the IC50 is reported as 0.35 µM. `CCC(C)[C@@H]1NC(=O)[C@H](Cc2ccc(-c3ccccc3)cc2)NC(=O)[C@H](C(C)C)NC(=O)[C@H](Cc2c[nH]c3ccccc23)NC(=O)[C@H](CC(=O)O)NC(=O)[C@H](Cc2ccc(O)cc2)NC(=O)[C@H](Cc2cccc3[nH]ccc23)NC(=O)CSC[C@@H](C(=O)N[C@@H](C)C(N)=O)NC(=O)[C@H](C(C)O)NC(=O)[C@H](C(C)C)NC(=O)[C@H](CC2CCCCC2)NC(=O)[C@H](CCN)NC(=O)[C@@H](CC(C)C)NC(=O)[C@H](C)N(C)C1=O` (stereo partly drawn) [Compound 2053] ({CH2CO}-[Ala(indol-4-yl)]YDWV[Bip][Ile(3ξ)][NMeA][dL][Dab][Cha]V[Thr(3ξ)]CA-NH2; thioether N-14) was tested, and the IC50 was 0.03 µM. `CCC(C)[C@@H]1NC(=O)[C@H](Cc2ccc(-c3ccccc3)cc2)NC(=O)[C@H](CC(C)C)NC(=O)[C@H](Cc2c[nH]c3ccccc23)NC(=O)[C@H](CC(=O)O)NC(=O)[C@H](Cc2ccc(C(=O)O)cc2)NC(=O)[C@H](Cc2ccc(OCC(=O)O)cc2)NC(=O)CSC[C@@H](C(=O)N[C@@H](C)C(N)=O)NC(=O)[C@H](CO)NC(=O)[C@H](C(C)C)NC(=O)[C@H](CC2CCCCC2)NC(=O)[C@H](CNC)NC(=O)[C@@H](CC(C)C)NC(=O)[C@H](C)N(C)C1=O` (stereo partly drawn) [Compound 2068] ({CH2CO}-Y(Carboxymethyl)[Phe(4-COOH)]DWL[Bip][Ile(3ξ)][NMeA][dL][Dap(Me)][Cha]VSCA-NH2; thioether N-14) showed an IC50 of 0.03 µM. `CC(C)C[C@@H]1NC(=O)[C@H](CCCNC(=N)N)NC(=O)[C@@H](CC(C)C)NC(=O)[C@H](C)N(C)C(=O)[C@H](CCCNC(=N)N)NC(=O)[C@H](Cc2ccc(-c3ccccc3)cc2)NC(=O)[C@H](C(C)C)NC(=O)[C@H](Cc2c[nH]c3cc(F)ccc23)NC(=O)[C@H](CC(=O)O)NC(=O)[C@H](Cc2ccc(O)cc2)NC(=O)[C@H](Cc2ccccc2)NC(=O)CSC[C@@H](C(=O)N[C@@H](C)C(N)=O)NC(=O)[C@H]([C@@H](C)O)NC(=O)[C@H](C(C)C)NC1=O` [Compound 1079] ({CH2CO}-FYD[Trp(6-F)]V[Bip]R[NMeA][dL]RLVTCA-NH2; thioether N-14) showed an IC50 of 0.25 µM. Work on `CC(C)C[C@@H]1NC(=O)[C@H](Cc2c[nH]c3ccccc23)NC(=O)[C@H](CC(=O)O)NC(=O)[C@H](Cc2ccc(OCC(=O)O)cc2)NC(=O)[C@H](CC(N)=O)NC(=O)CSC[C@@H](C(=O)N[C@@H](C)C(N)=O)NC(=O)[C@H](CO)NC(=O)[C@H](C(C)C)NC(=O)[C@H](CC(C)C)NC(=O)[C@H](CC(N)=O)NC(=O)[C@@H](C)NC(=O)[C@H](C)N(C)C(=O)[C@H](C(C)C)NC(=O)[C@H](Cc2ccc(-c3ccccc3)cc2)NC1=O` [Compound 1769] ({CH2CO}-NY(Carboxymethyl)DWL[Bip]V[NMeA][dA]NLVSCA-NH2; thioether N-14) yielded an IC50 of 0.04 µM.
